Experimental data as given in ChEMBL document CHEMBL1129243, “(S)-(+)-2-(3'-carboxybicyclo[1.1.1]pentyl)-glycine, a structurally new group I metabotropic glutamate receptor antagonist” (J Med Chem, 1996).

Experiments:
Format in all cases: functional, cell-based
[1] = target: T1, Metabotropic glutamate receptor 5 (Homo sapiens, UniProt P41594); experiment: The compound was tested for inhibitory effect on second messenger formation in BHK cells expressing mGluR5a
[2] = target: T1, Metabotropic glutamate receptor 5; experiment: The compound was tested for effect on second messenger formation in BHK cells expressing mGluR5a at half maximal concentration
[3] = target: T2, Metabotropic glutamate receptor 2 (Homo sapiens, UniProt Q14416); experiment: The compound was tested for effect on second messenger formation in BHK cells expressing mGluR2
[4] = target: T1, Metabotropic glutamate receptor 5; experiment: The compound was tested for effect on second messenger formation in BHK cells expressing mGluR5a
[5] = target: T2, Metabotropic glutamate receptor 2; experiment: The compound was tested for inhibitory effect on second messenger formation in BHK cells expressing mGluR2
[6] = target: T3, Metabotropic glutamate receptor 4 (Homo sapiens, UniProt Q14833); experiment: The compound was tested for inhibitory effect on second messenger formation in BHK cells expressing mGluR4a
[7] = target: T3, Metabotropic glutamate receptor 4; experiment: The compound was tested for effect on second messenger formation in BHK cells expressing mGluR4a

T3 sequence (Q14833 whole entry): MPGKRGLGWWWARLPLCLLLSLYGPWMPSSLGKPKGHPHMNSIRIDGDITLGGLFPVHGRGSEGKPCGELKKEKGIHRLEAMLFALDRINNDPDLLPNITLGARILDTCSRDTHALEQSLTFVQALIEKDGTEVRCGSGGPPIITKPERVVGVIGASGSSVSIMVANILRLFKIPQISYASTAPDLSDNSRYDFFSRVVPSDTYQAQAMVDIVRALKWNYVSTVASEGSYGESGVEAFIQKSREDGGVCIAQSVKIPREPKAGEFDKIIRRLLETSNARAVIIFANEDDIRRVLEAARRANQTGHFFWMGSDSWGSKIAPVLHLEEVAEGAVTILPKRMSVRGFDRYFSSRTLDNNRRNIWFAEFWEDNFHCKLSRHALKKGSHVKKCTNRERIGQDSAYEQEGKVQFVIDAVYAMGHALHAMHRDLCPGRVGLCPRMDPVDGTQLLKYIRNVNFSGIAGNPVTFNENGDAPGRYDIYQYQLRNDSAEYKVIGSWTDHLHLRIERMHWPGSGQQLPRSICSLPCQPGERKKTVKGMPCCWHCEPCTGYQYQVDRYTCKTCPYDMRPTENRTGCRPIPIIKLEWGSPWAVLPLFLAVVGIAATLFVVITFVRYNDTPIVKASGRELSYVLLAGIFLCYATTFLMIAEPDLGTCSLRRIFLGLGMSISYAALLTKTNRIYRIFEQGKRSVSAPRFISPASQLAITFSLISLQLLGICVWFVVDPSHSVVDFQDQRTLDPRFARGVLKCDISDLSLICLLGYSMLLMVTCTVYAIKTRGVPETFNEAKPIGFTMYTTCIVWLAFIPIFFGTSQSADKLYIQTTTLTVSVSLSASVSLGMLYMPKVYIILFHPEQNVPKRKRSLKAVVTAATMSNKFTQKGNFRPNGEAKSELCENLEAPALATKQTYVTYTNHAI
T2 sequence (Q14416 whole entry): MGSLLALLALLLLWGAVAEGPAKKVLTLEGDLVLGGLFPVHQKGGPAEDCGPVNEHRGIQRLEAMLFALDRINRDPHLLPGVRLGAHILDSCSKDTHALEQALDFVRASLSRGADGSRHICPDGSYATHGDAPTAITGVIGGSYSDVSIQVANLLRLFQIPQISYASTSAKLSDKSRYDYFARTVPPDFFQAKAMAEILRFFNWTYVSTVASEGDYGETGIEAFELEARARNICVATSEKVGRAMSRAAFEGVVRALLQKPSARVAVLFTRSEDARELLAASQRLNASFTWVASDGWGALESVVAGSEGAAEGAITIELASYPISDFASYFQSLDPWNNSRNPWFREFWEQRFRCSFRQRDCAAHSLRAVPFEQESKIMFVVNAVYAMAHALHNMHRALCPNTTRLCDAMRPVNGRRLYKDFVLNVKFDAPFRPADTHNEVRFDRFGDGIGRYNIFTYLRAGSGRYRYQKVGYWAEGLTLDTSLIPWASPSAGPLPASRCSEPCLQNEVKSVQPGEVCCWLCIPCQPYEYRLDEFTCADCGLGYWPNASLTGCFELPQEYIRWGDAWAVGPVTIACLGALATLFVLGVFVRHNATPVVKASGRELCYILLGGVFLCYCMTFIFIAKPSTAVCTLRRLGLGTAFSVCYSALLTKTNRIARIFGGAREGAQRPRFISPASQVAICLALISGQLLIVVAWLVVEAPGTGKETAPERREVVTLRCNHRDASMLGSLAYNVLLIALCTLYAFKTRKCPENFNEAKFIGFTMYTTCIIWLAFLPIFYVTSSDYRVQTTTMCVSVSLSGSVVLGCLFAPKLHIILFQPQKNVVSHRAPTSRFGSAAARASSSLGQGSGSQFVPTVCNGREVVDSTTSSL
T1 sequence (P41594 whole entry): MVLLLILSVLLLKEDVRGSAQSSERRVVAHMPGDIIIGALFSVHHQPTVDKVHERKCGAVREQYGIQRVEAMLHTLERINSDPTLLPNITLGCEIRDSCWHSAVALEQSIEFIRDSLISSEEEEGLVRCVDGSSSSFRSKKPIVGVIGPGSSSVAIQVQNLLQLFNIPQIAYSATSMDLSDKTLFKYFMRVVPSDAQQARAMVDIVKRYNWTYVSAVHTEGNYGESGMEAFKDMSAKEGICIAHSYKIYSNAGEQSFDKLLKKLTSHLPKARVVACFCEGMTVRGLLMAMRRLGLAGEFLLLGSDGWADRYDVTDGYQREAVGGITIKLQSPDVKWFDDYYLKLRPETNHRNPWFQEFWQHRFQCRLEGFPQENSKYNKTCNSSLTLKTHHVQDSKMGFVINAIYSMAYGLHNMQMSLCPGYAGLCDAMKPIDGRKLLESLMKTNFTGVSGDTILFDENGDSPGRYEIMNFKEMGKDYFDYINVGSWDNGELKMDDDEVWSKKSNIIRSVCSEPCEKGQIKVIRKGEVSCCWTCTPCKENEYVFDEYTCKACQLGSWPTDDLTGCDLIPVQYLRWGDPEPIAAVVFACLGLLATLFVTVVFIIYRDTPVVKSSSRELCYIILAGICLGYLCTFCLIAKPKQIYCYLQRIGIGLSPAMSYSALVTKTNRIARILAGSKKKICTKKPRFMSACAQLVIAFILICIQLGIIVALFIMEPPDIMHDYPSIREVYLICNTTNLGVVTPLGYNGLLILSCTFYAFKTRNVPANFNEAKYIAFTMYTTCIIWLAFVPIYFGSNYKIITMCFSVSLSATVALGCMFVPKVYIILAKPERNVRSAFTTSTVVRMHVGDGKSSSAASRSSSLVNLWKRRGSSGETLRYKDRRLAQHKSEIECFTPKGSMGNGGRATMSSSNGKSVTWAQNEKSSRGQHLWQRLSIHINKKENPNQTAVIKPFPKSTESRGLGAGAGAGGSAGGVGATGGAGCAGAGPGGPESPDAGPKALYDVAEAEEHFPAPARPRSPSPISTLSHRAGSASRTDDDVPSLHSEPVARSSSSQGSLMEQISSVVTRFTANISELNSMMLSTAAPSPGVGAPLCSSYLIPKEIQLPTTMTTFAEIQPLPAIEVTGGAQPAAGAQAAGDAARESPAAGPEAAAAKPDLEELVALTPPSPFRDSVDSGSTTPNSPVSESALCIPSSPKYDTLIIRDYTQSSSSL

Row | SMILES | IC50 [1] [µM] | EC50 [2] [µM] | EC50 [3] [µM] | EC50 [4] [µM] | IC50 [5] [µM] | IC50 [6] [µM] | EC50 [7] [µM]
1 | N[C@H](C(=O)O)C12CC(C(=O)O)(C1)C2 | > 300 | 103 | > 300 | > 300 | > 300 | > 300 | > 300
2 | N[C@@H](C(=O)O)C12CC(C(=O)O)(C1)C2 | > 300 |  | > 300 | > 300 | > 300 | > 300 | > 300
